The values below come from US10201558B2, “Compositions of selenoorganic compounds and methods of use thereof” (Alltech, Inc., priority 2014, dated 2019).

Holding throughout (format): cell-based, human
Test [1] relates to RCAN1. As to the kind of experiment: QRT-PCR of RCAN1 and RCAN1.1 mRNA in control and FOXO4 KD IMR-32 cells. Particulars: 24 hours. As to the method:
(§1) IMR-32 cells were cultured on 12-well plates for 24 hours and then incubated with FOXO4 siRNA lentiviruses (SC-29650V, Santa Cruz) or control siRNA lentiviruses (sc-108080, Santa Cruz) in the presence of Polybrene (5 μg/ml, Santa Cruz) for 24 hours according to the manufacturer's protocol. These lentiviral siRNA-transfected cells were amplified in normal media for 3 days and then incubated with puromycin for 9-14 days to obtain the stable Control KD (stably transfected with the control siRNAs) and FOXO4KD (stably transfected with Foxo4 siRNAs) cells. These control and Foxo4 KD cells were subjected to cell survival, mitochondrial potential and RNA analysis.
Human IMR-32 cells were seeded on gelatinized 6-well (6.5×10^5 cells/well) or 24-well (1.3×10^5 cells/well) plates. Cells were treated with control (0 ppb) or various compounds for 6 hours or 24 hours. Total RNA from these cells was isolated using Trizol (Invitrogen) according to the manufacturer's protocol, and then incubated with DNase I to remove any potential contaminated genomic DNA. Then RNA samples were subjected to real-time PCR analysis using the Applied-Bioscience's RT kit and predesigned Taqman probes (Invitrogen), as described previously (Lan et al EMBO J 2003). The mRNA levels of UCP1, UCP2, UCP3, SLC25A27 (UCP4), SLC25A14 (UCP5), PSEN1, Nicastrin, GSK3B, MAPK11-14, PPARG, APOE, RCAN1, RCAN1.1, G6PC, INSR, IGF1R and FOXO4 were measured. Three to six samples were analyzed in each treatment group. Data were normalized by Actin B (ACTB) or Glyceraldehyde Phosphate Dehydrogenase (GAPDH) mRNA levels in each sample and are presented as mean±SEM of 3-6 samples.
To investigate whether Compound C can regulate transcription of RCAN1 in a dose-dependent and FOXO4-dependent manner, normal control cells and FOXO4 KD cells were treated with two doses of Compound C for 24 hours, and subjected to QRT-PCR analysis. First a specific RCAN1 Taqman probe that can recognize all RCAN1 mRNA isoforms was used to determine if Compound C can regulate the transcription of RCAN1.
To further determine whether Compound C can regulate the transcription of RCAN1.1 mRNA, the above Compound C-treated RNA samples were subjected to QRT-PCR using a specific RCAN1.1 mRNA Taqman probe.

For test [2], the system named is IMR-32 cells. Briefly: Mitochondrial potential assay (Mitotracker Orange). The settings on record: 75 ppb and 150 ppb. The procedure: (§2) The mitochondrial potential per cell in control lentiviral KD IMR-32 or IMR-32 FOXO4 knockdown (KD) cells was determined using the Bio-TeK Synergy HT Multi-Mode fluorescence microplate reader with the following modifications. To improve the attachment of IMR-32 cells to culture dishes, cell culture plates were precoated with 0.1% gelatin (Sigma, St. Louis, Mo.).
(§3) To reduce cell dislodgment, Mitotracker Orange and Hoechst 33342 fluorescent dyes (diluted in culture media) were directly added to each well after control or compound treatments were added. After dye incubation, cell culture media was carefully replaced with 1×PBS buffer for the quantitation analysis of fluorescence on the microplate reader. Eight samples per each treatment were examined for the above analysis, and the experiments were repeated at least five times. Data are presented as mean±sem of eight samples.
Mitochondrial (MT) dysfunction and dysregulated glucose metabolism are associated with the onset of Alzheimer's Disease (AD). Likewise, as AD progresses, there is strong evidence that Aβ and Tau protein species precipitate further mitochondrial decline. […]

For test [3], the system named is control KD and FOXO4KD IMR-32 cells. Briefly: Mitochondrial potential in control KD and FOXO4 knockdown IMR-32 cells. Particulars: 75 ppb and 150 ppb, 6 hours. As to the method: as §1, §2, §3
To exclude the possibility that unknown factors in sera may affect the action of Compound C in cultured IMR-32 cells, cells were cultured in serum-free media for 24 hours, treated with Compound C (diluted in serum-free media) for 6 hours, and then subjected to MT analysis. Data were normalized by the fluorescence intensities of stained cell nuclei. Mean±SEM, n=8. The * refers to a p value <0.05 when compared to the control lentiviral KD cells group (0 ppb).

[4] abbreviates: FOXO4KD cells, 75 ppb and 150 ppb.

The structures appear in SMILES notation. Entries after “also recorded” stand apart in the source; their conditions may differ.

With `C[Se]C[C@H]1O[C@@H](n2cnc3c(N)ncnc32)C(O)C1O` (stereo in doubt) [Compound C, 5′-deoxy-5′-methylselenoadenosine], the “RCAN1.1 mRNA expression” value in test [1] (setting [4]) was “not significantly affected”; in test [1] (control cells, 150 ppb), “inhibited”. The “total RCAN1 mRNA levels” value in test [1] (setting [4]) was “not significantly altered”; in test [1] (control cells (control siRNA lentiviruses), 75 ppb and 150 ppb), “dose-dependent decrease; also recorded: significantly attenuated”. Also, the “MT potential (red fluorescence intensities, micrographs)” value in test [2] (6 hours) is given as “remarkably enhanced”. For the same molecule, the “MT potential, quantitative analysis normalized by stained cell nuclei” value in test [2] (6 hours and 24 hours) is “significant increase; also recorded: enhanced”. Besides, the MT potential entry is given as “no significant effect” in test [3] (FOXO4KD cells, serum-containing media); “no significant increase” in test [3] (FOXO4KD cells, serum-free media); “significantly enhanced” in test [3] (normal control KD cells, serum-containing media); “significantly stimulated” in test [3] (normal control KD cells, serum-free media).
